{"source": "patent US12208088B2", "about": "(Genentech, Inc., priority 2018, dated 2025)"}
{"molecular_target": "HPK1 (Homo sapiens (Human), UniProt Q92918)", "sequence (Q92918 1-346 limits assumed)": "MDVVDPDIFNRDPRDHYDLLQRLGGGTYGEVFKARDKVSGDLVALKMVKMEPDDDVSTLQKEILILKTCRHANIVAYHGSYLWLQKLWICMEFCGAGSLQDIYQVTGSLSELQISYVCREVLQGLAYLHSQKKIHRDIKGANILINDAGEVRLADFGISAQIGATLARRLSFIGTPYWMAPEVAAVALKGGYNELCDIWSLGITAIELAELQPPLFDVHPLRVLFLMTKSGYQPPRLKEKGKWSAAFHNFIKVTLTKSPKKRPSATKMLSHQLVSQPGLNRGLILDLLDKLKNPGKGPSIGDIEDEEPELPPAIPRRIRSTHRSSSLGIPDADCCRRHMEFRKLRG", "assay": "HPK1 Lantha binding assay (\"Lanth\")", "settings": "binding assays; Morrison Ki fit", "outline": "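Ki values are from Morrison-equation fitting of 665/615 nm TR-FRET signals, taking enzyme level, tracer level and tracer Kd into account. The assay mix held HPK1 (2 nM), Eu-anti-GST antibody (2 nM) and Tracer222 (15 nM). Incubations were two 1 h steps at 23 °C, on 5-fold serial compound dilutions.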", "units": {"Ki": "µM"}}
{"smiles": "CN(C)C(=O)c1c(N)ccc(-c2cnc3c(c2Cl)[C@]2(CC[C@H](C(N)=O)C2)CN3)c1F", "note": "(single isomer, unassigned) [Compound 100a]", "Ki": 0.0635}
{"smiles": "CN(C)C(=O)c1c(N)ccc(-c2cnc3c(c2Cl)[C@@]2(CC[C@@H](C(N)=O)C2)CN3)c1F", "note": "(single isomer, unassigned) [Compound 100b]", "Ki": 0.00174}
{"smiles": "CN(C)C(=O)c1c(N)ccc(-c2cnc3c(c2Cl)[C@]2(CC[C@H](C(=O)O)C2)CN3)c1F", "note": "(single isomer, unassigned) [Compound 105a]", "Ki": 0.00985}
{"smiles": "CN(C)C(=O)c1c(N)ccc(-c2cnc3c(c2Cl)[C@]2(CC[C@H](C(=O)N(C)C)C2)CN3)c1F", "note": "(single isomer, unassigned) [Compound 107a]", "Ki": 0.0501}
{"smiles": "CN(C)C(=O)c1c(N)ccc(-c2cnc3c(c2Cl)[C@]2(CC[C@](O)(Cn4cncn4)C2)CN3)c1F", "note": "(single isomer, unassigned) [Compound 116c]", "Ki": 0.14}
{"smiles": "CN(C)C(=O)c1c(N)ccc(-c2cnc3c(c2Cl)[C@]2(CC[C@H](n4ncnc4N)C2)CN3)c1F", "note": "(single isomer, unassigned) [Compound 118a]", "Ki": 0.00849}
{"smiles": "CN(C)C(=O)c1c(N)ccc(-c2cnc3c(c2Cl)[C@@]2(CCC(=O)NC2)CN3)c1F", "note": "(single isomer, unassigned) [Compound 123a]", "Ki": 0.0376}
{"smiles": "CN(C)C(=O)c1c(N)ccc(-c2cnc3c(c2Cl)[C@]2(CCC(=O)NC2)CN3)c1F", "note": "(single isomer, unassigned) [Compound 123b]", "Ki": 0.771}
{"smiles": "C[C@H]1Nc2ncc(-c3ccc(N)c(C(=O)N(C)C)c3F)cc2C12CC2", "note": "(single isomer, unassigned) [Compound 128a]", "Ki": 0.0466}
{"smiles": "C[C@@H]1Nc2ncc(-c3ccc(N)c(C(=O)N(C)C)c3F)cc2C12CC2", "note": "(single isomer, unassigned) [Compound 128b]", "Ki": 0.0422}
{"smiles": "CN(C)C(=O)c1c(N)ccc(-c2cnc3c(c2Cl)[C@]2(CC[C@](C)(C#N)C2)CN3)c1F", "note": "(single isomer, unassigned) [Compound 131a]", "Ki": 0.00393}
{"smiles": "CN(C)C(=O)c1c(N)ccc(-c2cnc3c(c2Cl)[C@]2(CC[C@@H](CC(N)=O)C2)CN3)c1F", "note": "(single isomer, unassigned) [Compound 135c]", "Ki": 0.00295}
{"smiles": "CN(C)C(=O)c1c(N)ccc(-c2cnc3c(c2Cl)[C@]2(CC[C@H](N4CCCC4=O)C2)CN3)c1F", "note": "(single isomer, unassigned) [Compound 143a]", "Ki": 0.157}
{"smiles": "CN(C)C(=O)c1c(N)ccc(-c2cnc3c(c2Cl)[C@@]2(CN3)C[C@H](O)[C@@H](n3ccnn3)C2)c1F", "note": "(single isomer, unassigned) [Compound 146c]", "Ki": 0.0746}
{"smiles": "CN(C)C(=O)c1c(N)ccc(-c2cnc3c(c2Cl)[C@@]2(CC[C@@](C)(C(N)=O)C2)CN3)c1F", "note": "(single isomer, unassigned) [Compound 155b]", "Ki": 0.0848}
{"smiles": "Cc1cc(C#N)nn1[C@H]1CC[C@@]2(CNc3ncc(-c4ccc(N)c(C(=O)N(C)C)c4F)c(Cl)c32)C1", "note": "(single isomer, unassigned) [Compound 162a]", "Ki": 0.103}
{"smiles": "CN(C)C(=O)c1c(N)ccc(-c2cnc3c(c2Cl)[C@]2(CC[C@H](n4ccc(C(F)(F)F)n4)C2)CN3)c1F", "note": "(single isomer, unassigned) [Compound 168a]", "Ki": 0.0263}
{"smiles": "Cn1cc([C@H]2CCCN2C(=O)c2cccc(-c3cnc4c(c3)C3(CC3)CN4)c2F)cn1", "note": "(single isomer, unassigned) [Compound 174a]", "Ki": 0.0742}
{"smiles": "Cn1cc([C@@H]2CCCN2C(=O)c2cccc(-c3cnc4c(c3)C3(CC3)CN4)c2F)cn1", "note": "(single isomer, unassigned) [Compound 174b]", "Ki": 0.582}
{"smiles": "Cn1cc([C@H]2CCCCN2C(=O)c2cccc(-c3cnc4c(c3)C3(CC3)CN4)c2F)cn1", "note": "(single isomer, unassigned) [Compound 175a]", "Ki": 0.0042}
{"smiles": "Cn1cc([C@@H]2CCCCN2C(=O)c2cccc(-c3cnc4c(c3)C3(CC3)CN4)c2F)cn1", "note": "(single isomer, unassigned) [Compound 175b]", "Ki": 0.945}
{"smiles": "Cn1cccc(-c2cccc(-c3cnc4c(c3Cl)[C@]3(CC[C@](C)(C(N)=O)C3)CN4)c2)c1=O", "note": "(single isomer, unassigned) [Compound 179a]", "Ki": 0.194}
{"smiles": "Cn1cccc(-c2cccc(-c3cnc4c(c3Cl)[C@@]3(CC[C@@](C)(C(N)=O)C3)CN4)c2)c1=O", "note": "(single isomer, unassigned) [Compound 179b]", "Ki": 0.00091}
{"smiles": "CC1(C#N)CCCN1C(=O)c1cccc(-c2cnc3c(c2)C2(CC2)CN3)c1F", "note": "(single isomer, unassigned) [Compound 191a]", "Ki": 0.0347}
{"smiles": "CC(C)[C@H]1C[C@@]12CNc1ncc(-c3ccc(N)c(C(=O)N(C)C)c3F)c(Cl)c12", "note": "(single isomer, unassigned) [Compound 193a]", "Ki": 0.00364}
{"smiles": "CC(C)[C@@H]1C[C@]12CNc1ncc(-c3ccc(N)c(C(=O)N(C)C)c3F)c(Cl)c12", "note": "(single isomer, unassigned) [Compound 193b]", "Ki": 0.00141}
{"smiles": "CN(C)C(=O)c1cccc(-c2cnc3c(c2Cl)[C@]2(CC[C@](C)(C(N)=O)C2)CN3)c1F", "note": "(single isomer, unassigned) [Compound 195b]", "Ki": 0.00623}
{"smiles": "CCC[C@H]1C[C@@]12CNc1ncc(-c3ccc(N)c(C(=O)N(C)C)c3F)c(Cl)c12", "note": "(single isomer, unassigned) [Compound 197a]", "Ki": 0.00513}
{"smiles": "CCC[C@@H]1C[C@]12CNc1ncc(-c3ccc(N)c(C(=O)N(C)C)c3F)c(Cl)c12", "note": "(single isomer, unassigned) [Compound 197b]", "Ki": 0.00364}
{"smiles": "CN(C)C(=O)c1cccc(-c2cnc3c(c2)[C@]2(CC[C@](C)(C(N)=O)C2)CN3)c1F", "note": "(single isomer, unassigned) [Compound 199a]", "Ki": 0.941}
{"smiles": "CN(C)C(=O)c1cccc(-c2cnc3c(c2)[C@@]2(CC[C@@](C)(C(N)=O)C2)CN3)c1F", "note": "(single isomer, unassigned) [Compound 199b]", "Ki": 0.105}
{"smiles": "C[C@]1(C(N)=O)CC[C@@]2(CNc3ncc(-c4cccc(N5CCOCC5=O)c4F)c(Cl)c32)C1", "note": "(single isomer, unassigned) [Compound 202b]", "Ki": 0.0219}
{"smiles": "CCC[C@H]1C[C@@]12CNc1ncc(-c3ccc(N)c(C(=O)N(C)C)c3F)cc12", "note": "(single isomer, unassigned) [Compound 217a]", "Ki": 0.0094}
{"smiles": "CCC[C@@H]1C[C@]12CNc1ncc(-c3ccc(N)c(C(=O)N(C)C)c3F)cc12", "note": "(single isomer, unassigned) [Compound 217b]", "Ki": 0.00905}
{"smiles": "CCC[C@@H]1C[C@@]12CNc1ncc(-c3ccc(N)c(C(=O)N(C)C)c3F)cc12", "note": "(single isomer, unassigned) [Compound 217c]", "Ki": 0.0679}
{"smiles": "CCC[C@H]1C[C@]12CNc1ncc(-c3ccc(N)c(C(=O)N(C)C)c3F)cc12", "note": "(single isomer, unassigned) [Compound 217d]", "Ki": 0.0234}
{"smiles": "C[C@H]1C[C@@]12CNc1ncc(-c3ccc(N)c(C(=O)N(C)C)c3F)c(Cl)c12", "note": "(single isomer, unassigned) [Compound 228a]", "Ki": 0.00476}
{"smiles": "C[C@@H]1C[C@]12CNc1ncc(-c3ccc(N)c(C(=O)N(C)C)c3F)c(Cl)c12", "note": "(single isomer, unassigned) [Compound 228b]", "Ki": 0.00173}
{"smiles": "C[C@H](c1cnn(C)c1)N(C)C(=O)c1cccc(-c2cnc3c(c2)C2(CC2)CN3)c1F", "note": "(single isomer, unassigned) [Compound 229a]", "Ki": 0.011}
{"smiles": "C[C@@H](c1cnn(C)c1)N(C)C(=O)c1cccc(-c2cnc3c(c2)C2(CC2)CN3)c1F", "note": "(single isomer, unassigned) [Compound 229b]", "Ki": 0.013}
{"smiles": "CC(C)[C@H]1C[C@@]12CNc1ncc(-c3ccc(N)c(C(=O)N(C)C)c3F)cc12", "note": "(single isomer, unassigned) [Compound 234a]", "Ki": 0.00392}
{"smiles": "CC(C)[C@@H]1C[C@@]12CNc1ncc(-c3ccc(N)c(C(=O)N(C)C)c3F)cc12", "note": "(single isomer, unassigned) [Compound 234c]", "Ki": 0.103}
{"smiles": "CC(C)C1C[C@]12CNc1ncc(-c3ccc(N)c(C(=O)N(C)C)c3F)cc12", "note": "(single isomer, unassigned) [Compound 234d]", "Ki": 0.0519}
{"smiles": "Cn1cc([C@H]2CCCCN2C(=O)c2c(N)ccc(-c3cnc4c(c3Cl)C3(CC=CC3)CN4)c2F)cn1", "note": "(single isomer, unassigned) [Compound 239a]", "Ki": 0.00089}
{"smiles": "Cn1cc([C@@H]2CCCCN2C(=O)c2c(N)ccc(-c3cnc4c(c3Cl)C3(CC=CC3)CN4)c2F)cn1", "note": "(single isomer, unassigned) [Compound 239b]", "Ki": 0.021}
{"smiles": "Cn1cc([C@H]2CCCCN2C(=O)c2cccc(-c3cnc4c(c3Cl)C3(CC=CC3)CN4)c2F)cn1", "note": "(single isomer, unassigned) [Compound 240a]", "Ki": 0.00387}
{"smiles": "Cn1cc([C@@H]2CCCCN2C(=O)c2cccc(-c3cnc4c(c3Cl)C3(CC=CC3)CN4)c2F)cn1", "note": "(single isomer, unassigned) [Compound 240b]", "Ki": 0.112}
{"smiles": "CC[C@H]1C[C@@]12CNc1ncc(-c3ccc(N)c(C(=O)N(C)C)c3F)cc12", "note": "(single isomer, unassigned) [Compound 243a]", "Ki": 0.00578}
{"smiles": "CC[C@@H]1C[C@]12CNc1ncc(-c3ccc(N)c(C(=O)N(C)C)c3F)cc12", "note": "(single isomer, unassigned) [Compound 243b]", "Ki": 0.0104}
{"smiles": "CC[C@@H]1C[C@@]12CNc1ncc(-c3ccc(N)c(C(=O)N(C)C)c3F)cc12", "note": "(single isomer, unassigned) [Compound 243c]", "Ki": 0.0631}
{"smiles": "CC[C@H]1C[C@]12CNc1ncc(-c3ccc(N)c(C(=O)N(C)C)c3F)cc12", "note": "(single isomer, unassigned) [Compound 243d]", "Ki": 0.0251}
{"smiles": "Cn1cc(C2CCCCN2C(=O)c2cccc(-c3cnc4c(c3Cl)[C@]3(CC[C@H](O)CC3)CN4)c2F)cn1", "note": "(single isomer, unassigned) [Compound 246a]", "Ki": 0.0103}
{"smiles": "Cn1cc(C2CCCCN2C(=O)c2cccc(-c3cnc4c(c3Cl)[C@]3(CC[C@H](O)CC3)CN4)c2F)cn1", "note": "(single isomer, unassigned) [Compound 246b]", "Ki": 0.316}
{"smiles": "Cn1cc(C2CCCCN2C(=O)c2c(N)ccc(-c3cnc4c(c3)[C@]3(CC[C@H](O)CC3)CN4)c2F)cn1", "note": "(single isomer, unassigned) [Compound 253a]", "Ki": 0.0231}
